Laboratory results as given in ChEMBL document CHEMBL1201862, “PubChem BioAssay data set” (2004).
Activity calls are given as the source filed them.

Assays:
[1] = target: Serine/threonine-protein kinase TBK1 (Homo sapiens, UniProt Q9UHD2); assay: Navigating the Kinome. Panel member name: TBK1; type: functional
[2] = target: Proto-oncogene tyrosine-protein kinase receptor Ret (Homo sapiens, UniProt P07949); type: functional;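 further: measured within a kinome-wide profiling panel, RET as the panel member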
[3] = target: Macrophage-stimulating protein receptor (Homo sapiens, UniProt Q04912); assay: Navigating the Kinome. Panel member name: MST1R; type: functional
[4] = target: Glycogen synthase kinase-3 beta (Homo sapiens, UniProt P49841); type: functional;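 further: value comes from a broad kinome profiling panel, with GSK3B as the panel member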
[5] = target: Serine/threonine-protein kinase pim-1 (Homo sapiens, UniProt P11309); type: functional
[6] = target: Protein kinase C theta type (Homo sapiens, UniProt Q04759); assay: Navigating the Kinome. Panel member name: PRKCQ; type: functional
[7] = target: BDNF/NT-3 growth factors receptor (Homo sapiens, UniProt Q16620); type: functional;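 further: NTRK2 measured as one member of a broad kinome-wide kinase profiling panel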
[8] = target: Fibroblast growth factor receptor 1 (Homo sapiens, UniProt P11362); type: functional
[9] = target: Cyclin-dependent kinase 5 (Homo sapiens, UniProt Q00535); type: functional;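 further: CDK5 measured as one member of a kinase profiling panel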
[10] = target: T1, Heat shock factor protein 1 (Mus musculus, UniProt P38532); assay: inhibition of MG132-induced HSE-luciferase signal, confirmation, cell-based, NIH3T3, luminescence, dose retest (AID 2382); type: functional;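 further: NIH3T3 fibroblasts with HSF1-driven luciferase reporter stressed by proteasome inhibitor MG132; luminescence from HSF1-driven luciferase expression after 8 hours of MG132 stress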
T1 sequence (P38532 whole entry): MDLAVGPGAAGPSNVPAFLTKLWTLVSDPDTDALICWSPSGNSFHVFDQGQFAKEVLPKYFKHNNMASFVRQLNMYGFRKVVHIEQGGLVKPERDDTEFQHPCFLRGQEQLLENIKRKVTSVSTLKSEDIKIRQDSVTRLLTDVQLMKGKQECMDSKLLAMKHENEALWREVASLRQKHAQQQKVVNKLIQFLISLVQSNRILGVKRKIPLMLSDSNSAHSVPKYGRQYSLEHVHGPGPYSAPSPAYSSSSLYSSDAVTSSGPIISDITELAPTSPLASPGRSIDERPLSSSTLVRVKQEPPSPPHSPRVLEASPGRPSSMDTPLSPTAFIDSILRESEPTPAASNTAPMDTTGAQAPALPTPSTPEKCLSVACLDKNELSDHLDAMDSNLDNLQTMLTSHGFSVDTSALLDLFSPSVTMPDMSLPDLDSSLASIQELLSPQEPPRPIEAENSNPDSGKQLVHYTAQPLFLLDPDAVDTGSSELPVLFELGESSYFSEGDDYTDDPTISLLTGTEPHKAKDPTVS

Caspase-6 = target: T2, Caspase-6 (Homo sapiens, UniProt P55212); assay: human caspase-6 inhibitors, dose response, biochemical, VEID-R110 fluorescence, cherry-pick (AID 720632)
T2 sequence (P55212 whole entry): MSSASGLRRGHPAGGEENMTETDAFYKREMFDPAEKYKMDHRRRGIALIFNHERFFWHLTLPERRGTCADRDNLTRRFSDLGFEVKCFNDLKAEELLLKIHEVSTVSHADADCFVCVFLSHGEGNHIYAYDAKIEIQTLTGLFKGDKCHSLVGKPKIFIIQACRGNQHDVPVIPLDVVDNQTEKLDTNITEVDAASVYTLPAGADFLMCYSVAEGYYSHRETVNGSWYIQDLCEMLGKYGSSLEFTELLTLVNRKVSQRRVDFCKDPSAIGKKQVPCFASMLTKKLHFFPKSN

Caspase-3 = target: T3, Caspase-3 (Homo sapiens, UniProt P42574); assay: Dose-response confirmation of uHTS inhibitor hits of Sentrin-Specific Protease 8 in a Caspase-3 Fluorescence assay.; type: functional
T3 sequence (P42574 whole entry): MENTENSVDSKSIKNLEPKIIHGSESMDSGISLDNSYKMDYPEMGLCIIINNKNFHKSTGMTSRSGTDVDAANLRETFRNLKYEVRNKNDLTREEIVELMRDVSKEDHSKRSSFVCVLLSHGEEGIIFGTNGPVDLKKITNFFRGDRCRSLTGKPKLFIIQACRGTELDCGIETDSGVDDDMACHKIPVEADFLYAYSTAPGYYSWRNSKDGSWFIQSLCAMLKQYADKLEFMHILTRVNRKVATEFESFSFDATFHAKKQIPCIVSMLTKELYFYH

[11] = target: DNA dC->dU-editing enzyme APOBEC-3G (Homo sapiens, UniProt Q9HC16); assay: Dose Response confirmation of small molecule APOBEC3G DNA Deaminase Inhibitors via a fluorescence-based single-stranded DNA deaminase assay. [Related pubchem assays (depositor defined):AID493012, AID493028]; type: functional
[12] = target: T4, Sentrin-specific protease 6 (Homo sapiens, UniProt Q9GZR1); type: functional;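 further: Luminescence-based dose-response confirmatory assay of SENP6 inhibition, following up an ultra-high-throughput screen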
T4 sequence (Q9GZR1 whole entry): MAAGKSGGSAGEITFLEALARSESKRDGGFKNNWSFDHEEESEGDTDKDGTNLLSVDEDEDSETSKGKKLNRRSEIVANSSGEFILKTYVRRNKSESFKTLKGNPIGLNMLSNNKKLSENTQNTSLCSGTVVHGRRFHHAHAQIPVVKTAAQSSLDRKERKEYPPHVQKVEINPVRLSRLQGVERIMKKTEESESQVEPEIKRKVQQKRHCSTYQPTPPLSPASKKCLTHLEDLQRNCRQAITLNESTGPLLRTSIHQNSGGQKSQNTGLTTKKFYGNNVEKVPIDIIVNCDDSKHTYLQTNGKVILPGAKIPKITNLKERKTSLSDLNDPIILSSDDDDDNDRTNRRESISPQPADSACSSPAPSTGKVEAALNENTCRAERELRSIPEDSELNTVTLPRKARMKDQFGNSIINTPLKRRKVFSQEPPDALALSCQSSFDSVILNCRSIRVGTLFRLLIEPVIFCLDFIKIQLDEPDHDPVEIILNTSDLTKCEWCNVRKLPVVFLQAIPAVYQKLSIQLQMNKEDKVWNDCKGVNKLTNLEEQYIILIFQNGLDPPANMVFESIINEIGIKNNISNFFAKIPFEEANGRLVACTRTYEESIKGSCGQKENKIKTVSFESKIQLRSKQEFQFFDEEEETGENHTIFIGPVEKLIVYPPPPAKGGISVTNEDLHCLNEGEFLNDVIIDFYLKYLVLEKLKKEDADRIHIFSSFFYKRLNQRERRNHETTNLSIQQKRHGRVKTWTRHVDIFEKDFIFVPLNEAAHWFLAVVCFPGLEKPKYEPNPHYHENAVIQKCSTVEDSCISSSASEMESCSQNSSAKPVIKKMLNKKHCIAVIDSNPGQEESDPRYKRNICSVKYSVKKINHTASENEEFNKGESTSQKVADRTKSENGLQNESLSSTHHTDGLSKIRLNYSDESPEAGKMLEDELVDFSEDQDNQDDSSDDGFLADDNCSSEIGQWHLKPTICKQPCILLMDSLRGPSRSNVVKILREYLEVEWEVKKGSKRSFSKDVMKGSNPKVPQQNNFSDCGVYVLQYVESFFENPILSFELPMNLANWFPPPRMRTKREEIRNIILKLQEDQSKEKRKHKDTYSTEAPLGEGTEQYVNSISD

Chain of Protein kinase C theta type (Q04759 whole entry): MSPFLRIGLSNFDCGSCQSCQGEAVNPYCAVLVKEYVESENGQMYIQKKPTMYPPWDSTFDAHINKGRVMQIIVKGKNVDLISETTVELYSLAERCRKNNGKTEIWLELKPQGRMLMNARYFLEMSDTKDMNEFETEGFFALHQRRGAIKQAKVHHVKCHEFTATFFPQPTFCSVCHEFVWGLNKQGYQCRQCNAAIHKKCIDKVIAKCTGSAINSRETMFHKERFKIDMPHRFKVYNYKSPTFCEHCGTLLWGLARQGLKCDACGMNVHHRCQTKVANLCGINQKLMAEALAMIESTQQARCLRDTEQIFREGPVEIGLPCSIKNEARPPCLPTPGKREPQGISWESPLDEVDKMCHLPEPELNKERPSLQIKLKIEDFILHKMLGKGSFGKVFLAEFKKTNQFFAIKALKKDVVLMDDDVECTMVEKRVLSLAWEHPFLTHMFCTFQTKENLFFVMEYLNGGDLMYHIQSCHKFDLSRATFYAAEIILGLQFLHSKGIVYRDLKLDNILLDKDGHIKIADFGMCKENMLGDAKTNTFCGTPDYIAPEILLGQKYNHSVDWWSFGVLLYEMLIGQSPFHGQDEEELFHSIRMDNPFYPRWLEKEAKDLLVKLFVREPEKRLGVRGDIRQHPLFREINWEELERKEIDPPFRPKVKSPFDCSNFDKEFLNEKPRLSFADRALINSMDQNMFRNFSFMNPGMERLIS
Chain of Proto-oncogene tyrosine-protein kinase receptor Ret (P07949 whole entry): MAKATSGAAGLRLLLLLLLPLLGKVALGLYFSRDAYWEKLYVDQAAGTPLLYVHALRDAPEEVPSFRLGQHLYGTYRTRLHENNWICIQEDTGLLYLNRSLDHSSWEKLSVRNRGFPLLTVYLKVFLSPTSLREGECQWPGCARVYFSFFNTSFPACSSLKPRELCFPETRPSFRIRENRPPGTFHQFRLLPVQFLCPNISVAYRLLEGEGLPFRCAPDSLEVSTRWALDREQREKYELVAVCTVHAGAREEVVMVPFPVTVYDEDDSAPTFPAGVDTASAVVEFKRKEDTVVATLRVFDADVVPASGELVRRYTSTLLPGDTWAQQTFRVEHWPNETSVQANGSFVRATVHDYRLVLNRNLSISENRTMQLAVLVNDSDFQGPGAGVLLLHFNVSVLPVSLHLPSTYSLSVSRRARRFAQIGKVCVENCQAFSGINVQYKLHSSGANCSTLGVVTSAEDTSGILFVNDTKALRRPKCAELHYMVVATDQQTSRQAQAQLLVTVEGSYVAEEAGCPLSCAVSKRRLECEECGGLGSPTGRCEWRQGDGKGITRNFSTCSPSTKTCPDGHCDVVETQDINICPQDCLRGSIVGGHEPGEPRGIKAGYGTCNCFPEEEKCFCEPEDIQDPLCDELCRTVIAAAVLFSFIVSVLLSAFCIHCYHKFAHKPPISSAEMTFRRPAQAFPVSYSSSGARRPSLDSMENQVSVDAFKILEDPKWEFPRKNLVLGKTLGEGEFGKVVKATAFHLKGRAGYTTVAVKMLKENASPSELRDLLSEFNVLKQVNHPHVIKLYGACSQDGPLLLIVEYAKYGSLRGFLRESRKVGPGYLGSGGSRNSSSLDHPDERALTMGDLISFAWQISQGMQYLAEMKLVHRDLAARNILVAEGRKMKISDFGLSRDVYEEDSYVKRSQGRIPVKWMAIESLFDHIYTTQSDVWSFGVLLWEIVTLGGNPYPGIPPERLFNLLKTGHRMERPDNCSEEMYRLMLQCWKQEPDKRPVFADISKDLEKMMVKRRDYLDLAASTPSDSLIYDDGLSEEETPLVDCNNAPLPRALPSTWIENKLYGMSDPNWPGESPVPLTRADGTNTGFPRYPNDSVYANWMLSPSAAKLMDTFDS
Chain of Macrophage-stimulating protein receptor (Q04912 25-304 limits assumed): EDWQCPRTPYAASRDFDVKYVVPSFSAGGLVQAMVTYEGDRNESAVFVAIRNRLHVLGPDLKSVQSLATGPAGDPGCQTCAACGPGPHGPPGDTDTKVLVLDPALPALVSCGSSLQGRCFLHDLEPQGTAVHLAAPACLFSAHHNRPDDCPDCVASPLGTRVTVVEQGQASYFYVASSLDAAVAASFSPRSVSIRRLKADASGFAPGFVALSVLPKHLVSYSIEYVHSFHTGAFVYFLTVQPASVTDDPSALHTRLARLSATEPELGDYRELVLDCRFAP
Chain of Macrophage-stimulating protein receptor (Q04912 310-1400 limits assumed): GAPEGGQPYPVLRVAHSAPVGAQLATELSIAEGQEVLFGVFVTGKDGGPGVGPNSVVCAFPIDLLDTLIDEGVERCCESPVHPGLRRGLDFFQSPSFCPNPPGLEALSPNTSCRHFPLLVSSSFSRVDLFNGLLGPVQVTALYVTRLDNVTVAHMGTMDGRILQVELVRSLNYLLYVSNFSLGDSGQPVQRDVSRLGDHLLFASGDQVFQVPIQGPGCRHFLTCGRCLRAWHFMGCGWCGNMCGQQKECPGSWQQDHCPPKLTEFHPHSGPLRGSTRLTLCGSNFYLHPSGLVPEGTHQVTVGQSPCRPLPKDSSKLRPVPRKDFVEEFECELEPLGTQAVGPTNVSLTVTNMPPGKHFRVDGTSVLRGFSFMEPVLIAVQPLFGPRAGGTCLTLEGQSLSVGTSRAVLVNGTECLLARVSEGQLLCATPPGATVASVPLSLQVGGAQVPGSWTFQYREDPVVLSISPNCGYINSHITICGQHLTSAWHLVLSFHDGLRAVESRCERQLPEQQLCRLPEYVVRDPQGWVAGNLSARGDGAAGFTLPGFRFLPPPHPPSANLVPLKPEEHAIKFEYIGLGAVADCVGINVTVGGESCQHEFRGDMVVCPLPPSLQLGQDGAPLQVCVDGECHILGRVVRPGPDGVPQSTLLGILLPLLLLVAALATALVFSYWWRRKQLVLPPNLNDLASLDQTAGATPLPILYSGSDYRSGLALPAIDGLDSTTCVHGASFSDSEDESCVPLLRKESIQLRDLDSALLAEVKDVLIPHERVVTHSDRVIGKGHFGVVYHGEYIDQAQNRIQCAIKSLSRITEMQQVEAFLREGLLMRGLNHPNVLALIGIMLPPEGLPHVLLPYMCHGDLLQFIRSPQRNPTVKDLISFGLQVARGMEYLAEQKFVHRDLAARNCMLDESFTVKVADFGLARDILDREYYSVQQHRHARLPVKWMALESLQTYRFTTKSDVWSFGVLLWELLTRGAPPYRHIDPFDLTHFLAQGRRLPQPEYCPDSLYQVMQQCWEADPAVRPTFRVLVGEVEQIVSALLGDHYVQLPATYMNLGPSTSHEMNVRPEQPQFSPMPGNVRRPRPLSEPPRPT
Chain of Serine/threonine-protein kinase TBK1 (Q9UHD2 whole entry): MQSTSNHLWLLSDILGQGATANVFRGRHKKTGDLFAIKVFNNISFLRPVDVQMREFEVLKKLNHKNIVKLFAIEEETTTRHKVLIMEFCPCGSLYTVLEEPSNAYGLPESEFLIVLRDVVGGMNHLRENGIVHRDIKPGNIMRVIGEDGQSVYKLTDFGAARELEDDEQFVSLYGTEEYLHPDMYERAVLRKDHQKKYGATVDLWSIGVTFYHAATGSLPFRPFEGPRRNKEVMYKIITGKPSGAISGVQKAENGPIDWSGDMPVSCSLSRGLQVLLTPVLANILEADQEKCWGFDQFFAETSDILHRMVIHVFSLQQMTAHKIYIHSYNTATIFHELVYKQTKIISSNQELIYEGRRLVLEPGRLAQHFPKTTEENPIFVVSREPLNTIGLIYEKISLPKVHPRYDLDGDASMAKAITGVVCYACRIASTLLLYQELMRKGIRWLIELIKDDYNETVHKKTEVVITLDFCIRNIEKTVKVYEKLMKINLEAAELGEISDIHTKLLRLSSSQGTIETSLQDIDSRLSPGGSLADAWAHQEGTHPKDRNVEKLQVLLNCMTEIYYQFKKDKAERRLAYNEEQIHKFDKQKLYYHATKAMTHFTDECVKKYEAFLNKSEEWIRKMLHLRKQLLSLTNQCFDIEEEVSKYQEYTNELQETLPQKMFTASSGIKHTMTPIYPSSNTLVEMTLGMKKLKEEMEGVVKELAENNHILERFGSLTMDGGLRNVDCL
Chain of DNA dC->dU-editing enzyme APOBEC-3G (Q9HC16 whole entry): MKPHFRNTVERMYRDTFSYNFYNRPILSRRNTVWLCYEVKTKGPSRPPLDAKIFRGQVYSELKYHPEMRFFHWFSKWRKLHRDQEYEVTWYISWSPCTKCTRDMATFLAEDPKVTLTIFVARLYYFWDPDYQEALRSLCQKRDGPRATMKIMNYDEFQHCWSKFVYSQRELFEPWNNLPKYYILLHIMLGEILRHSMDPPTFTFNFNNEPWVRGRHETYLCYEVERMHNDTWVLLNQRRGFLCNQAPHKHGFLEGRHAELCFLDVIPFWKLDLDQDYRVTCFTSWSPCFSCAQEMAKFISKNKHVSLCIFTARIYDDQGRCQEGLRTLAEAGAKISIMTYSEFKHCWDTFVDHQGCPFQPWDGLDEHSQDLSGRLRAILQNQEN
Chain of Cyclin-dependent kinase 5 (Q00535 whole entry): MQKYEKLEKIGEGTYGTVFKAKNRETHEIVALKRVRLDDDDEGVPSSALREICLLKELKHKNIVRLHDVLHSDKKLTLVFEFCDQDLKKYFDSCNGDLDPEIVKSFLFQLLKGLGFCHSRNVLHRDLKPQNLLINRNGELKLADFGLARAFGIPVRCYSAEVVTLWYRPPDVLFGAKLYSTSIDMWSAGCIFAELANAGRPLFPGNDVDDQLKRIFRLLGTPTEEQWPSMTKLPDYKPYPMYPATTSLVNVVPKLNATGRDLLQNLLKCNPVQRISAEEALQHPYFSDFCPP
Chain of Glycogen synthase kinase-3 beta (P49841 whole entry): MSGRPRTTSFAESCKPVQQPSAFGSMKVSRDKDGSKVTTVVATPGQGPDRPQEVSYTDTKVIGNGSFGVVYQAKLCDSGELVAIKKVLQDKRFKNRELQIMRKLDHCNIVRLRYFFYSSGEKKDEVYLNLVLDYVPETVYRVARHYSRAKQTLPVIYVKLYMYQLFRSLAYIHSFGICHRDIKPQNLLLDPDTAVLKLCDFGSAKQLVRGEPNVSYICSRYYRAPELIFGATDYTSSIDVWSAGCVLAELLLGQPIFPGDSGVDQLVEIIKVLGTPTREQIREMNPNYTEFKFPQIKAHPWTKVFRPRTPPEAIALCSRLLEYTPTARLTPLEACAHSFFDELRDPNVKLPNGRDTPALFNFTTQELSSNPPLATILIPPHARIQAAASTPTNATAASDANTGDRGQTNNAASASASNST

Cc1ccc(-c2cc3nc(Br)cnc3[nH]2)cc1
Ki [1]: > 3.16 µM (inactive) | Ki [2]: 2.51 µM (active) | Ki [3]: > 3.98 µM (inactive) | Ki [4]: > 3.98 µM (inactive) | Ki [5]: > 6.31 µM (inactive) | Ki [6]: > 2.51 µM (inactive) | Ki [7]: > 3.98 µM (inactive) | Ki [8]: > 3.98 µM (inactive) | Ki [9]: 0.00794 µM (active)

CC1(C)C=C2C(=NN(c3ccccc3)C(N)=C2C#N)CO1
EC50 [10]: > 195 µM (not active) | AC50 (Caspase-6): 1.07 µM (active) | IC50 (Caspase-3): 1.09 µM (active)

CC(=O)N(C1=C(Cl)C(=O)c2ccccc2C1=O)c1ccc(C(=O)O)cc1
IC50 [11]: 8.03 µM (active) | IC50 [12]: 4.08 µM (active)
